The first experiment has as its target recombinant human cGAS (Homo sapiens (Human), UniProt Q8N884). Nature of the experiment: In vitro inhibition assay of cGAS activity (cGAMP production, RapidFire mass spectrometry). Type of experiment: biochemical. The conditions noted are these: 10 nM recombinant human cGAS, 60 nM 75-bp dsDNA, ATP, GTP, room temperature 3 hours, read-out: IC50 (μM), In vitro inhibition assay for Compounds 1-94. The method, then:
Expression and Purification of Recombinant cGAS Protein: Insert cDNA encoding full-length of human cGAS into a modified bacterial expression vector containing an in-frame His6-tag. Induce the E. coli strain BL21(DE3) harboring the plasmid with 1 mM IPTG (Isopropyl β-D-1-thiogalactopyranoside) at 18° C. overnight. Purify the His6-tagged cGAS protein over HISpur Ni-NTA resin in the presence of benzonase and RNase followed by Superdex 200 size exclusion chromatography with storage buffer (50 mM Tris-HCl pH 7.5, 300 mM NaCl, 1 mM DTT, 10% glycerol).
In vitro inhibition assay of cGAS activity: Add a 5 μL mixture containing 10 mM Tris-Cl pH 7.5, 50 mM NaCl, 5 mM MgCl2, 1 mM DTT, 0.01% Triton X-100, 60 nM 75-bp dsDNA, […], 50 μM GTP, 10 nM of recombinant human cGAS, and serial dilutions of a test compound in DMSO to a 384-well plate and incubate at room temperature for 3 hours. Quench the reaction by the addition of 100 μL of stop solution containing 0.1% formic acid and 0.1 μM internal standard (3′3′-difluoro cGAMP). Measure the amount of cGAMP produced by RapidFire 365 mass spectrometry and evaluate inhibitory effect of a compound by plotting percent specific inhibition of cGAMP production against log concentration of the test compound. Calculate IC50 values using a 4-parameter non-linear logistic equation (y=(S0+((SInf−S0)/(1+((qAC50/x)^nHill))))).
Chain of recombinant human cGAS (Q8N884 whole entry): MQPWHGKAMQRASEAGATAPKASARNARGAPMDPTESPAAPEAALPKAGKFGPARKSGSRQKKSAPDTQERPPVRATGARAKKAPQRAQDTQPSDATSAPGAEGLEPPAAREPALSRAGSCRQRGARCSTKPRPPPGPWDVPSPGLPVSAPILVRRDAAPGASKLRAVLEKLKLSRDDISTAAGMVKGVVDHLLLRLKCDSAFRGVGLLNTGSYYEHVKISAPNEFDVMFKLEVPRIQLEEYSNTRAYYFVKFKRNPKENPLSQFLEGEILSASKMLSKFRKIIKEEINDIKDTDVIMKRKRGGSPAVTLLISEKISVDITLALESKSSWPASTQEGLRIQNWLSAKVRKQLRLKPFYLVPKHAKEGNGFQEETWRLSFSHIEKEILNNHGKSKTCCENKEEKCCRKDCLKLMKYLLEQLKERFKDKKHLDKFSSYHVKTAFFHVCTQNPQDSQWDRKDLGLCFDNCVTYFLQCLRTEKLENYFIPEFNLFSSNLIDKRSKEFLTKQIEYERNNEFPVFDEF
What is called IC50 is the concentration at which inhibition is half-maximal. Consider `O=C(O)C1CCn2c(c(-c3cn[nH]c3)c3ccc(Cl)c(Cl)c32)C1` (single isomer, unassigned) [Example 13, 3,4-Dichloro-10-(1H-pyrazol-4-yl)-6,7,8,9-tetrahydropyrido[1,2-a]indole-8-carboxylic acid], for which the IC50 was determined as 0.0117 µM.
On to `O=C(O)C1CCn2c(c(-c3cn[nH]c3)c3ccc(Cl)c(Cl)c32)C1` (single isomer, unassigned) [Example 14, 3,4-Dichloro-10-(1H-pyrazol-4-yl)-6,7,8,9-tetrahydropyrido[1,2-a]indole-8-carboxylic acid], for which the IC50 was found to be 0.0309 µM.
`OCC1CCn2c(c(-c3cn[nH]c3)c3ccc(Cl)c(Cl)c32)C1` (single isomer, unassigned) [Example 15, [3,4-Dichloro-10-(1H-pyrazol-4-yl)-6,7,8,9-tetrahydropyrido[1,2-a]indol-8-yl]methanol]: the IC50 amounted to 0.289 µM.
With `OCC1CCn2c(c(-c3cn[nH]c3)c3ccc(Cl)c(Cl)c32)C1` (single isomer, unassigned) [Example 16, [3,4-Dichloro-10-(1H-pyrazol-4-yl)-6,7,8,9-tetrahydropyrido[1,2-a]indol-8-yl]methanol], the IC50 was 0.0674 µM.
Still for that read-out and setting: the result for `OC1CCc2c(-c3cn[nH]c3)c3ccc(Cl)c(Cl)c3n2C1` (single isomer, unassigned) [Example 18, 3,4-Dichloro-10-(1H-pyrazol-4-yl)-6,7,8,9-tetrahydropyrido[1,2-a]indol-7-ol] reads 0.152 µM; that for `OC1CCc2c(-c3cn[nH]c3)c3ccc(Cl)c(Cl)c3n2C1` (single isomer, unassigned) [Example 19, 3,4-Dichloro-10-(1H-pyrazol-4-yl)-6,7,8,9-tetrahydropyrido[1,2-a]indol-7-ol], 0.0663 µM.
In the case of `CC(=O)NC1CCc2c(-c3cn[nH]c3)c3ccc(Cl)c(Cl)c3n2C1` (single isomer, unassigned) [Example 20, N-[3,4-Dichloro-10-(1H-pyrazol-4-yl)-6,7,8,9-tetrahydropyrido[1,2-a]indol-7-yl]acetamide], the IC50 worked out at 0.155 µM.
For the compound `CC(=O)NC1CCc2c(-c3cn[nH]c3)c3ccc(Cl)c(Cl)c3n2C1` (single isomer, unassigned) [Example 21, N-[3,4-Dichloro-10-(1H-pyrazol-4-yl)-6,7,8,9-tetrahydropyrido[1,2-a]indol-7-yl]acetamide], the IC50 is 0.0243 µM.
With `CS(=O)(=O)NC1CCc2c(-c3cn[nH]c3)c3ccc(Cl)c(Cl)c3n2C1` (single isomer, unassigned) [Example 22, N-[3,4-Dichloro-10-(1H-pyrazol-4-yl)-6,7,8,9-tetrahydropyrido[1,2-a]indol-7-yl]methanesulfonamide], the concentration for half-maximal inhibition (IC50) amounted to 0.0225 µM.
For the compound `CS(=O)(=O)NC1CCc2c(-c3cn[nH]c3)c3ccc(Cl)c(Cl)c3n2C1` (single isomer, unassigned) [Example 23, N-[3,4-Dichloro-10-(1H-pyrazol-4-yl)-6,7,8,9-tetrahydropyrido[1,2-a]indol-7-yl]methanesulfonamide], the IC50 is 0.0887 µM.
As to `O=C(O)C1CCCn2c(c(-c3cn[nH]c3)c3ccc(Cl)c(Cl)c32)C1` (single isomer, unassigned) [Example 24, 3,4-Dichloro-11-(1H-pyrazol-4-yl)-7,8,9,10-tetrahydro-6H-azepino[1,2-a]indole-9-carboxylic acid], the IC50 is 0.0834 µM.
As to `O=C(O)C1CCCn2c(c(-c3cn[nH]c3)c3ccc(Cl)c(Cl)c32)C1` (single isomer, unassigned) [Example 25, 3,4-Dichloro-11-(1H-pyrazol-4-yl)-7,8,9,10-tetrahydro-6H-azepino[1,2-a]indole-9-carboxylic acid], the IC50 was determined as 0.0412 µM.
As to `CC(=O)NC1CCn2c1c(-c1cn[nH]c1)c1ccc(Cl)c(Cl)c12` (single isomer, unassigned) [Example 26, N-(5,6-Dichloro-9-(1H-pyrazol-4-yl)-2,3-dihydro-1H-pyrrolo[1,2-a]indol-1-yl)acetamide], the 50% inhibitory concentration (IC50) came to 0.0229 µM.
Consider `CC(=O)NC1CCn2c1c(-c1cn[nH]c1)c1ccc(Cl)c(Cl)c12` (single isomer, unassigned) [Example 27, N-(5,6-Dichloro-9-(1H-pyrazol-4-yl)-2,3-dihydro-1H-pyrrolo[1,2-a]indol-1-yl)acetamide], for which the half-inhibitory concentration (IC50) turned out to be 0.158 µM.
`Clc1ccc2c(-c3cn[nH]c3)c[nH]c2c1Cl` [Example 1, 6,7-Dichloro-3-(1H-pyrazol-4-yl)-1H-indole]: the IC50 is 0.0863 µM.
For the compound `Cc1[nH]c2c(Cl)c(Cl)ccc2c1-c1cn[nH]c1` [Example 2, 6,7-Dichloro-2-methyl-3-(1H-pyrazol-4-yl)-1H-indole], the IC50 came to 0.0557 µM.
As for `Cc1c(-c2cn[nH]c2)c2ccc(Cl)c(Cl)c2n1C` [Example 3, 6,7-Dichloro-1,2-dimethyl-3-(1H-pyrazol-4-yl)indole], the IC50 amounted to 0.0614 µM.
`Cc1[nH]c2c(Cl)c(Cl)ccc2c1-n1ccnc1` [Example 4, 6,7-Dichloro-3-imidazol-1-yl-2-methyl-1H-indole]: the IC50 came to 0.0641 µM.
`CC(=O)NCc1[nH]c2c(Cl)c(Cl)ccc2c1-c1cn[nH]c1` [Example 5, N-[[6,7-Dichloro-3-(1H-pyrazol-4-yl)-1H-indol-2-yl]methyl]acetamide]: the IC50 came out at 0.0246 µM.
For `Clc1ccc2c(-c3cn[nH]c3)c(CNc3ccon3)[nH]c2c1Cl` [Example 6, N-[[6,7-Dichloro-3-(1H-pyrazol-4-yl)-1H-indol-2-yl]methyl]isoxazol-3-amine], the IC50 was 0.0578 µM.
Turning to `O=C1Cn2c(c(-c3cn[nH]c3)c3ccc(Cl)c(Cl)c32)CCN1` [Example 7, 7,8-Dichloro-11-(1H-pyrazol-4-yl)-1,2,3,5-tetrahydro-[1,4]diazepino[1,7-a]indol-4-one], the 50% inhibitory concentration (IC50) is 0.0436 µM.
The same measure, in the same setting: in the case of `O=C1Cn2c(c(-c3cn[nH]c3)c3ccc(Cl)c(Cl)c32)CN1` [Example 8, 6,7-Dichloro-10-(1H-pyrazol-4-yl)-2,4-dihydro-1H-pyrazino[1,2-a]indol-3-one] it was 0.0531 µM; in that of `Clc1ccc2c(-c3cn[nH]c3)c(CNc3nncs3)[nH]c2c1Cl` [Example 10, N-[[6,7-Dichloro-3-(1H-pyrazol-4-yl)-1H-indol-2-yl]methyl]-1,3,4-thiadiazol-2-amine], 0.0629 µM; in that of `Cc1nnc(NCc2[nH]c3c(Cl)c(Cl)ccc3c2-c2cn[nH]c2)s1` [Example 11, N-[[6,7-Dichloro-3-(1H-pyrazol-4-yl)-1H-indol-2-yl]methyl]-5-methyl-1,3,4-thiadiazol-2-amine], 0.0423 µM.
For the compound `Cn1cnnc1NCc1[nH]c2c(Cl)c(Cl)ccc2c1-c1cn[nH]c1` [Example 12, N-[[6,7-Dichloro-3-(1H-pyrazol-4-yl)-1H-indol-2-yl]methyl]-4-methyl-1,2,4-triazol-3-amine], the IC50 was determined as 0.0649 µM.
`O=C1CCc2c(-c3cn[nH]c3)c3ccc(Cl)c(Cl)c3n2C1` [Example 17, 3,4-Dichloro-10-(1H-pyrazol-4-yl)-8,9-dihydro-6H-pyrido[1,2-a]indol-7-one]: the IC50 turned out to be 0.0427 µM.
As to `O=C(Cc1[nH]c2c(Cl)c(Cl)ccc2c1-c1cn[nH]c1)NCc1cnccn1` [Example 28, 2-[6,7-Dichloro-3-(1H-pyrazol-4-yl)-1H-indol-2-yl]-N-(pyrazin-2-ylmethyl)acetamide], the half-maximal inhibitory concentration (IC50) was determined as 0.064 µM.
`Clc1ccc2c(-n3ccnc3)c[nH]c2c1Cl` [Example 29, 6,7-Dichloro-3-imidazol-1-yl-1H-indole]: the IC50 came out at 0.0447 µM.
For `Clc1c(Br)ccc2c(-c3cn[nH]c3)c[nH]c12` [Example 30, 6-bromo-7-chloro-3-(1H-pyrazol-4-yl)-1H-indole], the IC50 was 0.034 µM.
In the case of `O=C1NCCn2c1c(-c1cn[nH]c1)c1ccc(Cl)c(Cl)c12` [Example 31, 6,7-Dichloro-10-(1H-pyrazol-4-yl)-3,4-dihydro-2H-pyrazino[1,2-a]indol-1-one], the IC50 stood at 0.0462 µM.
Take `O=C1c2c(-c3cn[nH]c3)c3ccc(Cl)c(Cl)c3n2CCN1CCO` [Example 32, 6,7-Dichloro-2-(2-hydroxyethyl)-10-(1H-pyrazol-4-yl)-3,4-dihydropyrazino[1,2-a]indol-1-one]: the IC50 is 0.0411 µM.
Still for that read-out and setting: in the case of `NCCN1CCn2c(c(-c3cn[nH]c3)c3ccc(Cl)c(Cl)c32)C1=O` [Example 33, 2-(2-Aminoethyl)-6,7-dichloro-10-(1H-pyrazol-4-yl)-3,4-dihydropyrazino[1,2-a]indol-1-one] it was 0.0825 µM; in that of `Clc1ccc2c(-c3cn[nH]c3)cn(-c3cn[nH]n3)c2c1Cl` [Example 34, 6,7-Dichloro-3-(1H-pyrazol-4-yl)-1-(2H-triazol-4-yl)indole], 0.0691 µM.

Still in this experiment, the particulars now being: 10 nM recombinant human cGAS, 60 nM 75-bp dsDNA, ATP, GTP, room temperature 3 hours, read-out: IC50 (μM), In vitro inhibition assay for Compounds 95-348.
In the case of `O[C@@H]1CC[C@@H](Oc2cc(Cl)c(Cl)c3[nH]cc(-c4cn[nH]c4)c23)C1` (racemic) [Example 99, trans-3-((6,7-Dichloro-3-(1H-pyrazol-4-yl)-1H-indol-4-yl)oxy)cyclopentan-1-ol (racemic mixture)], the half-maximal inhibitory concentration (IC50) was 0.0593 µM.
